Data taken from ChEMBL document CHEMBL1944624, “Synthesis and antimalarial and antituberculosis activities of a series of natural and unnatural 4-methoxy-6-styryl-pyran-2-ones, dihydro analogues and photo-dimers” (Bioorg Med Chem, 2012).
≈ marks a conversion by molar mass, not a printed value.

What was measured:
[1] = tested on: Trypanosoma brucei rhodesiense; experiment: Antiprotozoal activity against Trypanosoma brucei rhodesiense STIB900 trypomastigotes after 72 hrs by alamar blue assay; type: functional, organism-based; conditions: STIB900, 72 h
Trypanosoma cruzi = experiment: Antiprotozoal activity against Trypanosoma cruzi Tulahuen C2C4 amastigotes infected in rat L6 myoblasts after 96 hrs by CPRG/Nonidet-based spectrophotometry; type: functional, organism-based; conditions: Tulahuen C2C4, L6, 96 h
Leishmania donovani [2] = experiment: Antiprotozoal activity against Leishmania donovani MHOM/ET/67/L82 axenic amastigotes after 72 hrs by alamar blue assay; type: functional, organism-based; conditions: MHOM/ET/67/L82, 72 h
Plasmodium falciparum [3] = experiment: microbe, parasite or virus in culture; type: functional, organism-based; conditions: K1
Description: Antiprotozoal activity against erythrocytic stages chloroquine- and pyrimethamine-resistant Plasmodium falciparum K1 assessed as inhibition of [3H]hypoxanthine incorporation pre-incubated for 48 hrs prior [3H]hypoxanthine addition measured after 24 hrs by liquid scintillation counting

L6 = experiment: Cytotoxicity against rat L6 myoblasts after 72 hrs by alamar blue assay; type: cell-based; conditions: L6, 72 h
[4] = Selectivity index, ratio of IC50 for erythrocytic stages chloroquine and pyrimethamine-resistant Plasmodium falciparum K1 to IC50 for rat L6 myoblasts; parameters: reference not given here
[5] = tested on: Mycobacterium tuberculosis; experiment: Antituberculosis activity against Mycobacterium tuberculosis; type: functional
[6] = tested on: Trypanosoma brucei rhodesiense; experiment: Antiprotozoal activity against Trypanosoma brucei rhodesiense; type: functional, organism-based
Plasmodium falciparum [7] = experiment: Antiprotozoal activity against Plasmodium falciparum; type: functional, organism-based
Leishmania donovani [8] = experiment: Antiprotozoal activity against Leishmania donovani; type: functional, organism-based
Plasmodium falciparum [9] = experiment: Antiprotozoal activity against chloroquine resistant Plasmodium falciparum K1; type: functional, organism-based

Structure (SMILES) | IC50 [1] [µM] | IC50 (Trypanosoma cruzi) [µM] | IC50 (Leishmania donovani [2]) [µM] | IC50 (Plasmodium falciparum [3]) [µM] | IC50 (L6) [µM] | Ratio IC50 [4] | MIC [5] [µM] | IC50 [6] [µM] | IC50 (Plasmodium falciparum [7]) [µM] | IC50 (Leishmania donovani [8]) [µM] | IC50 (Plasmodium falciparum [9]) [µM]
COc1cc(CCc2ccc3c(c2)OCO3)oc(=O)c1 | > 330 | > 330 | > 330 | > 18 | 150 |  |  |  |  |  | 
COc1cc(/C=C/c2ccc(OC)c(OC)c2)oc(=O)c1 | 31 | 170 | 270 | 3 | 160 | 54 |  |  |  |  | 
COc1cc(/C=C/c2cccc([N+](=O)[O-])c2)oc(=O)c1 | 290 | > 330 | 270 | 12 | 180 | 15 |  |  |  |  | 
COc1cc(/C=C/c2ccc([N+](=O)[O-])cc2)oc(=O)c1 | 38 | 240 | 49 | 6 | 190 | 32 |  |  |  |  | 
COc1cc(/C=C/c2ccc(C(C)(C)C)cc2)oc(=O)c1 | 44 | 26 | 20 | 5.3 | 24 | 4 |  |  |  |  | 
COc1cc(/C=C/c2ccc3c(c2)OCO3)oc(=O)c1 | 47 | 180 | 230 | 5.6 | 16 | 3 |  |  |  |  | 
COc1cc(/C=C/c2cccc(Oc3ccccc3)c2)oc(=O)c1 | 8.8 | 43 | 30 | 4.9 | 13 | 3 |  |  |  |  | 
COc1cc(/C=C/c2cccc(Oc3ccc(C(C)(C)C)cc3)c2)oc(=O)c1 | 34 | 40 | 25 | 6.3 | 64 | 10 |  |  |  |  | 
COc1cc(/C=C/C=C/c2ccccc2)oc(=O)c1 | 150 | > 350 | 220 | 6.7 | 190 | 29 |  |  |  |  | 
COc1cc(/C=C/C=C/c2ccc(N(C)C)cc2)oc(=O)c1 | 290 | > 300 | > 300 | 7.2 | 26 | 4 |  |  |  |  | 
COc1cc(/C=C/c2ccco2)oc(=O)c1 | 76 | > 410 | 240 | 17 | 140 | 8 |  |  |  |  | 
COc1cc(/C=C/c2cccc3ccccc23)oc(=O)c1 | 18 | 34 | 47 | 4.6 | 110 | 24 |  |  |  |  | 
COc1cc(/C=C/c2ccc3ccccc3c2)oc(=O)c1 | 2.7 | > 320 | > 320 | 1.3 | 28 | 22 |  |  |  |  | 
COc1cc(/C=C/c2ccc(/C=C/c3cc(OC)cc(=O)o3)cc2)oc(=O)c1 | 119 | > 240 | > 240 | 8.6 | > 240 | >28 |  |  |  |  | 
COc1cc(CCc2ccc(C(C)(C)C)cc2)oc(=O)c1 | 78 | 55 | 24 | 11 | 95 | 9 |  |  |  |  | 
COc1cc(CCc2ccc(OC)c(OC)c2)oc(=O)c1 | 200 | > 310 | 270 | > 17 | > 310 |  |  |  |  |  | 
COc1cc(CCc2cccc(Oc3ccc(C(C)(C)C)cc3)c2)oc(=O)c1 | 65 | 36 | 15 | 7.2 | 50 | 7 |  |  |  |  | 

Structure (SMILES) | IC50 [1] [µM] | IC50 (Trypanosoma cruzi) [µM] | IC50 (Leishmania donovani [2]) [µM] | IC50 (Plasmodium falciparum [3]) [µM] | IC50 (L6) [µM] | Ratio IC50 [4] | MIC [5] [µM] | IC50 [6] [µM] | IC50 (Plasmodium falciparum [7]) [µM] | IC50 (Leishmania donovani [8]) [µM] | IC50 (Plasmodium falciparum [9]) [µM]
COc1cc(CCc2cccc3ccccc23)oc(=O)c1 | 85 | 76 | 55 | > 18 | 110 |  |  |  |  |  | 
COc1cc(CCc2ccc3ccccc3c2)oc(=O)c1 | 72 | 65 | 42 | 16 | 91 | 6 |  |  |  |  | 
COc1cc(CCc2ccc(CCc3cc(OC)cc(=O)o3)cc2)oc(=O)c1 | 200 | > 240 | > 240 | 3.6 | 50 | 14 |  |  |  |  | 
COc1cc(=O)oc([C@H]2[C@H](c3ccc(OC)c(OC)c3)[C@H](c3cc(OC)cc(=O)o3)[C@H]2c2ccc(OC)c(OC)c2)c1 | 6.2 | 38 | 75 | 3.1 | 22 | 7 |  |  |  |  | 
COc1cc(=O)oc([C@H]2[C@H](c3ccc4ccccc4c3)[C@H](c3cc(OC)cc(=O)o3)[C@H]2c2ccc3ccccc3c2)c1 | 4.9 | 90 | 10 | 2.3 | 95 | 42 |  |  |  |  | 
COc1cc([C@@H]2[C@@H](c3ccccc3)[C@@H](c3ccccc3)[C@@H]2c2cc(OC)cc(=O)o2)oc(=O)c1 | 15 | 32 | 17 | 3.8 | 51 | 13 |  |  |  |  | 
CCCCCCc1c(OC)cc(CCCCC)oc1=O |  |  |  |  |  |  | 45 (≈ 12.6 µg/mL) | 14 | 11 |  | 
COC1=CC(=O)O[C@]2(/C=C/c3ccc(C(C)(C)C)cc3)[C@H]1[C@H](c1ccc(C(C)(C)C)cc1)[C@H]2c1cc(OC)cc(=O)o1 (racemic) | 21 | 71 | 4.5 | 1.7 | 130 | 76 |  |  |  |  | 
COC1=CC(=O)O[C@]2(/C=C/c3cccc(Oc4ccc(C(C)(C)C)cc4)c3)[C@H]1[C@H](c1cccc(Oc3ccc(C(C)(C)C)cc3)c1)[C@H]2c1cc(OC)cc(=O)o1 (racemic) | > 120 | > 120 | 66 | 4.4 | > 120 | >27 |  |  |  |  | 
COC1=CC(=O)O[C@]2(/C=C/c3ccccc3)[C@H]1[C@H](c1ccccc1)[C@H]2c1cc(OC)cc(=O)o1 (relative stereo) | 13 | 28 | 27 | 7.1 | > 200 | >28 |  |  |  |  | 
COC1=CC(=O)O[C@]2(/C=C/c3ccc(OC)c(OC)c3)[C@H]1[C@H](c1ccc(OC)c(OC)c1)[C@H]2c1cc(OC)cc(=O)o1 (relative stereo) | 61 | 130 | 79 | 1.5 | 120 | 80 |  |  |  |  | 
O=C(Cn1ccnc1[N+](=O)[O-])NCc1ccccc1 [BENZNIDAZOLE] |  | 1.4 |  |  |  |  |  |  |  |  | 
COc1cc(/C=C/c2ccccc2)oc(=O)c1 [DESMETHOXYYANGONIN] | 120 | 64 | 190 | 13 | 160 | 12 |  |  |  |  | 
COc1cc(CCc2ccccc2)oc(=O)c1 [DIHYDRO-5,6-DEHYDROKAWAIN] |  | 240 | 190 | > 22 | 290 |  |  |  |  |  | 
CCCCCCCCCCCCCCCCOP(=O)([O-])OCC[N+](C)(C)C [MILTEFOSINE] |  |  | 0.5 |  |  |  |  |  |  |  | 
COc1cc([C@@H]2c3cc4c(cc3[C@H](O)[C@H]3COC(=O)[C@H]23)OCO4)cc(OC)c1OC [PODOFILOX] |  |  |  |  | 0.01 |  |  |  |  |  | 
CCCCCCCC1CC(O)=C(CCCCCC)C(=O)O1 (centres undefined) [PSEUDOPYRONINE B] |  |  |  |  |  |  | 2.7 (≈ 0.8 µg/mL) | 42 |  | 4.8 | 48
